{"source": "patent US10010541B2", "about": "“Modulation of tissue transglutaminase activation in disease” (The Board of Trustees of the Leland Stanford Junior …, priority 2014, dated 2018)", "key": {"[1]": {"target": "T1, TG2 (Mus musculus, UniProt P21981)", "T1 construct": "host or cells: mice (in vivo)", "T1 sequence (P21981 1-686)": "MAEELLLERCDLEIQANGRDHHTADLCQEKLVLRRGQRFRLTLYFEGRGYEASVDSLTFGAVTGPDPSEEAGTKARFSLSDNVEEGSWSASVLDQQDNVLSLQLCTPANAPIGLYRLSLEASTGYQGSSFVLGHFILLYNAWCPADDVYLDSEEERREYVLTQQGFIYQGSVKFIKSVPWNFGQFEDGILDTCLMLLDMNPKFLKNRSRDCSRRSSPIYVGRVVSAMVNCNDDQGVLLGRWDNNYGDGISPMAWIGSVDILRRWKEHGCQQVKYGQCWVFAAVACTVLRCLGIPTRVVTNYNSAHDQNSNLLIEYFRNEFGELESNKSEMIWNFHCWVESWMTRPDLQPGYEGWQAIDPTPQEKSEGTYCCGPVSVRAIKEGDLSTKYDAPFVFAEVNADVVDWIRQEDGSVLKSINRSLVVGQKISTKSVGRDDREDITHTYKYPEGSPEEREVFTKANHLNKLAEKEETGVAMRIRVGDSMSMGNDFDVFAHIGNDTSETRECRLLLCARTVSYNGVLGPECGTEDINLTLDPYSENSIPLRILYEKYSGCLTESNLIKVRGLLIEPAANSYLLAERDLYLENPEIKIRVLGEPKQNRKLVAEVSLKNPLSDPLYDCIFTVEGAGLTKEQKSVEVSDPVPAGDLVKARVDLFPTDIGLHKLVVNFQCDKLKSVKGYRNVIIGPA", "conditions": "poly-I:C induced intestinal injury in mice; cited from earlier work"}, "[2]": {"target": "T2, TG2 (Homo sapiens, UniProt P21980)", "T2 sequence (P21980 1-687)": "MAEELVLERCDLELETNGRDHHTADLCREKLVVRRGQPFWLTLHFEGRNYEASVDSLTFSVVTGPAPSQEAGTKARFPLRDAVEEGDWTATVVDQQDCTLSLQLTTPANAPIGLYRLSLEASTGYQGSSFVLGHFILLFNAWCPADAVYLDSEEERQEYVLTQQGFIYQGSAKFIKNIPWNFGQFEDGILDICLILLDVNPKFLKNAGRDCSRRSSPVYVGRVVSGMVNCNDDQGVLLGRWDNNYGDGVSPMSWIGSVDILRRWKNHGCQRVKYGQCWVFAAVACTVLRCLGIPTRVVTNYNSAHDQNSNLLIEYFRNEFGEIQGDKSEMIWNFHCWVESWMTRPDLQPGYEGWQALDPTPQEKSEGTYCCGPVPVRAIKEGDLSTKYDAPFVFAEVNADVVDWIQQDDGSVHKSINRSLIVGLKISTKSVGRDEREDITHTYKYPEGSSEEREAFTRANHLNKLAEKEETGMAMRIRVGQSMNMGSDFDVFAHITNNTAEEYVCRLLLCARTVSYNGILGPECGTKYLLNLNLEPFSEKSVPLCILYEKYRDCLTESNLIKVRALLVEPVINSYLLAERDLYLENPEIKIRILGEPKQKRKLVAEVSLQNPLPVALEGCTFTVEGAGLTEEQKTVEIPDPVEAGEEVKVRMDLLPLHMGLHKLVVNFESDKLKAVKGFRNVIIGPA", "conditions": "cited from earlier work"}, "[3]": {"target": "T2, TG2", "conditions": "cell culture; cited from earlier work"}, "[4]": {"target": "T1, TG2", "conditions": "cited from earlier work"}, "[5]": {"tested_on": "proinflammatory cytokines IL-6, PAI-1 and MIP1α", "assay": "circulating proinflammatory cytokines in LPS-induced murine sepsis (ELISA)", "type": "in vivo, mice", "conditions": "septic mice (LPS 5 mg/kg iv); 1.5 mg/kg ip level; plasma at 3 hours", "method": "FIG. 3: The TG2 inhibitor CK996 reduces the proinflammatory cytokine load in septic mice at doses as low as 1.5 mg/kg: The graphs display the absolute circulating levels of the proinflammatory cytokines IL-6, PAI-1 and MIP1α in septic male BL6 mice as a function of the dose of intraperitoneally administered CK996 or ERW1041E. In each graph, the right y-axis depicts the relative levels of the respective cytokines over their background level in our control cohort. All septic mice in this study received lipopolysaccharide (LPS, 5 mg/kg i.v., at t=0) and either a TG2 inhibitor (CK996 or ERW1041E at 50, 15, 5.0 and 1.5 mg/kg i.p., at t=0 and 60 min) in vehicle (PBS with 5% DMSO, 2% Tween-80 and 2.5% hydroxypropyl-beta-cyclodextrin) or, for the septic control cohort, vehicle alone. An additional cohort defining the baseline cytokine levels received only intravenous vehicle and intraperitoneal inhibitor vehicle, respectively. At 3 hours the mice were euthanized and plasma collected in lithium heparin tubes. The levels of the respective proinflammatory cytokines were quantified using commercial ELISA kits according to the manufacturers' instructions. […]\nHaving established that intraperitoneal administration of CK996 could suppress TG2 activity in septic mice, we next sought to determine whether this pharmacologic intervention had any effect on the circulating levels of the key proinflammatory cytokines in sepsis. To this end, we administered CK996 in doses of 1.5, 5.0, 15 or 50 mg/kg intraperitoneally to septic mice (5 mg/kg LPS, iv) and measured the level of the proinflammatory cytokines IL-6, PAI-1 and MIP1α in plasma that was collected at 3 hours after infusion of LPS.\nWe therefore co-administered recombinant human thioredoxin protein (10 mg/kg, ip) along with CK996 (50 mg/kg, ip) to septic mice (5 mg/kg, iv) and quantified the load of proinflammatory cytokines as above."}, "[6]": {"target": "T3, TG1 (Homo sapiens, UniProt P22735)", "T3 sequence (P22735 1-817)": "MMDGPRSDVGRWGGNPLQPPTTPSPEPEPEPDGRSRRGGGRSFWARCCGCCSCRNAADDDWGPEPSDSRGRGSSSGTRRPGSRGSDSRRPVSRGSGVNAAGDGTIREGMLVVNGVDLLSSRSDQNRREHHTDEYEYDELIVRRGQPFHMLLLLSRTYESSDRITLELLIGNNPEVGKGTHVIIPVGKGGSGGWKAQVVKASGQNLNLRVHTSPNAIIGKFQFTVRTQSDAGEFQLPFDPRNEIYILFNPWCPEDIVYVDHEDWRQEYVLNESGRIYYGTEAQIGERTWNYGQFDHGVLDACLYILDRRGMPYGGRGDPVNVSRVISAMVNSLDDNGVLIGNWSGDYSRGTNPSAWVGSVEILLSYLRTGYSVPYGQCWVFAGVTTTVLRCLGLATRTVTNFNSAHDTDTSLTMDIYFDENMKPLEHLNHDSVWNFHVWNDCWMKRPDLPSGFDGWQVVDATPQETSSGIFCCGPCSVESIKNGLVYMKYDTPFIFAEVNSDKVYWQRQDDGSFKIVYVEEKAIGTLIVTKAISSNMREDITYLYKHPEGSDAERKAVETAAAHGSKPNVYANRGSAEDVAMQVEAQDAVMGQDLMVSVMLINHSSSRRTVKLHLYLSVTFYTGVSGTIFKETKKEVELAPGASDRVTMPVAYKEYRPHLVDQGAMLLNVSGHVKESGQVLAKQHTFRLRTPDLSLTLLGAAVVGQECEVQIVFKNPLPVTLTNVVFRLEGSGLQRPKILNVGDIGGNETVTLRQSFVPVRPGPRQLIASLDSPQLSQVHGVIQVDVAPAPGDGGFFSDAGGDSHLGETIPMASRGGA", "conditions": "cited from earlier work"}}, "note": "Read-outs that look alike come from different tables or passages of the source."}
{"smiles": "O=C(NC[C@@H]1CC(Br)=NO1)[C@@H]1CCCN1C(=O)OCc1cnc2ccccc2c1", "note": "[ERW1041E]", "values": [{"measurement": "catalytic activity of TG2", "setting": "[1]", "value": "capable of blocking the catalytic activity of TG2"}, {"measurement": "potency as inhibitor of TG2", "setting": "[2]", "value": "moderately potent"}, {"measurement": "catalytic activity of TG2", "setting": "[3]", "value": "capable of blocking the catalytic activity of TG2"}, {"measurement": "catalytic activity of TG2", "setting": "[4]; hypoxia-induced murine pulmonary hypertension", "value": "capable of blocking the catalytic activity of TG2"}, {"measurement": "tolerability", "setting": "[4]; twice daily administration for several weeks", "value": "well tolerated"}, {"measurement": "circulating levels of IL-6, PAI-1 and MIP1α", "setting": "[5]", "value": "no effect"}, {"measurement": "potency against TG1 relative to TG2", "setting": "[6]", "value": "comparably potent"}]}
